From ChEMBL document CHEMBL6134903, “Challenging triple negative breast cancer through HDAC6 selective inhibition: Novel cap-group identification, structure-activity relationships, computational and biological studies” (Eur J Med Chem, 2025)

What was measured:
[1] = Cytotoxicity against human HeLa cells assessed as reduction in cell viability incubated for 72 hrs by CellTiter Glo assay; assay type: toxicity, cell-based
physchem = settings: MeOH/H2O, pH 7
Description: Solubility of the compound in MeOH/H20 at pH 7 incubated for 24 hrs by LC-MS/MS analysis

| Compound | IC50 at 72 h [1] | CC50 at 72 h [1] | solubility at 24 h (physchem) |
| --- | --- | --- | --- |
| Cc1[nH]c2ccccc2c1CCNCc1ccc(/C=C/C(=O)NO)cc1 [PANOBINOSTAT] | 0.0109 µM | 0.011 µM |  |
| CN1CCc2c(c3ccccc3n2Cc2ccc(C(=O)NO)cc2)C1 [TUBASTATIN A] |  |  | < 1000 µg/mL |
| O=C(/C=C/c1ccc(CN(CCO)CCc2c[nH]c3ccccc23)cc1)NO [DACINOSTAT] | 0.0308 µM | 0.03 µM |  |
